According to ChEMBL document CHEMBL3627674, “Discovery of wrightiadione as a novel template for the TrkA kinase inhibitors” (Bioorg Med Chem Lett, 2015):

How the values were obtained:
[1] = molecular target: Serine/threonine-protein kinase PLK3 (Homo sapiens, UniProt Q9H4B4); experiment: Inhibition of PLK3 (unknown origin) by radiometric analysis in presence of [gamma-33P]-ATP
[2] = system: Tyrosine-protein kinase ABL1 (Homo sapiens), P00519 [E255K]; experiment: Inhibition of ABL1 E255K mutant phosphorylation (unknown origin) assessed as remaining activity at 10 uM by high-throughput assay relative to control
[3] = system: Tyrosine-protein kinase ABL1 (Homo sapiens), P00519 [T315I]; experiment: Inhibition of ABL1 T315I mutant phosphorylation (unknown origin) assessed as remaining activity at 10 uM by high-throughput assay relative to control
[4] = molecular target: Activin receptor type-1B (Homo sapiens) (UniProt P36896); experiment: Inhibition of ACVR1B (unknown origin) assessed as remaining activity at 10 uM by high-throughput assay relative to control
[5] = molecular target: ALK tyrosine kinase receptor (Homo sapiens) (UniProt Q9UM73); experiment: Inhibition of ALK (unknown origin) assessed as remaining activity at 10 uM by high-throughput assay relative to control
[6] = molecular target: Cyclin-dependent kinase 11B (Homo sapiens) (UniProt P21127); experiment: Inhibition of CDK11 (unknown origin) assessed as remaining activity at 10 uM by high-throughput assay relative to control
[7] = molecular target: Cyclin-dependent kinase 2 (Homo sapiens) (UniProt P24941); experiment: Inhibition of CDK2 (unknown origin) assessed as remaining activity at 10 uM by high-throughput assay relative to control
[8] = molecular target: Dual specificity tyrosine-phosphorylation-regulated kinase 1B (Homo sapiens) (UniProt Q9Y463); experiment: Inhibition of DYRK1B (unknown origin) assessed as remaining activity at 10 uM by high-throughput assay relative to control
[9] = system: Epidermal growth factor receptor (Homo sapiens), P00533 [L858R]; experiment: Inhibition of EGFR L858R mutant (unknown origin) assessed as remaining activity at 10 uM by high-throughput assay relative to control; assay type: protein assay
[10] = molecular target: Fibroblast growth factor receptor 2 (Homo sapiens) (UniProt P21802); experiment: Inhibition of FGFR2 (unknown origin) assessed as remaining activity at 10 uM by high-throughput assay relative to control
[11] = molecular target: Fibroblast growth factor receptor 3 (Homo sapiens) (UniProt P22607); experiment: Inhibition of FGFR3 (unknown origin) assessed as remaining activity at 10 uM by high-throughput assay relative to control
[12] = molecular target: Inhibitor of nuclear factor kappa-B kinase subunit alpha (Homo sapiens) (UniProt O15111); experiment: Inhibition of IKK-alpha (unknown origin) assessed as remaining activity at 10 uM by high-throughput assay relative to control
[13] = molecular target: Inhibitor of nuclear factor kappa-B kinase subunit beta (Homo sapiens) (UniProt O14920); experiment: Inhibition of IKK-beta (unknown origin) assessed as remaining activity at 10 uM by high-throughput assay relative to control
[14] = molecular target: Insulin receptor (Homo sapiens) (UniProt P06213); experiment: Inhibition of INSR (unknown origin) assessed as remaining activity at 10 uM by high-throughput assay relative to control
[15] = molecular target: Mitogen-activated protein kinase 8 (Homo sapiens) (UniProt P45983); experiment: Inhibition of JNK1 (unknown origin) assessed as remaining activity at 10 uM by high-throughput assay relative to control
[16] = molecular target: Mitogen-activated protein kinase 9 (Homo sapiens) (UniProt P45984); experiment: Inhibition of JNK2 (unknown origin) assessed as remaining activity at 10 uM by high-throughput assay relative to control
[17] = system: Mast/stem cell growth factor receptor Kit (Homo sapiens), P10721 [V559D,T670I]; experiment: Inhibition of KIT V559D/T670I double mutant (unknown origin) assessed as remaining activity at 10 uM by high-throughput assay relative to control
[18] = molecular target: Mitogen-activated protein kinase kinase kinase 4 (Homo sapiens) (UniProt Q9Y6R4); experiment: Inhibition of MAP3K4 (unknown origin) assessed as remaining activity at 10 uM by high-throughput assay relative to control
[19] = molecular target: MAP/microtubule affinity-regulating kinase 3 (Homo sapiens) (UniProt P27448); experiment: Inhibition of MARK3 (unknown origin) assessed as remaining activity at 10 uM by high-throughput assay relative to control
[20] = molecular target: Dual specificity mitogen-activated protein kinase kinase 1 (Homo sapiens) (UniProt Q02750); experiment: Inhibition of MEK1 (unknown origin) assessed as remaining activity at 10 uM by high-throughput assay relative to control
[21] = molecular target: Mitogen-activated protein kinase 14 (Homo sapiens) (UniProt Q16539); experiment: Inhibition of p38-alpha (unknown origin) assessed as remaining activity at 10 uM by high-throughput assay relative to control
[22] = molecular target: Mitogen-activated protein kinase 11 (Homo sapiens) (UniProt Q15759); experiment: Inhibition of p38-beta (unknown origin) assessed as remaining activity at 10 uM by high-throughput assay relative to control
[23] = molecular target: Serine/threonine-protein kinase PAK 4 (Homo sapiens) (UniProt O96013); experiment: Inhibition of PAK4 (unknown origin) assessed as remaining activity at 10 uM by high-throughput assay relative to control
[24] = molecular target: Platelet-derived growth factor receptor beta (Homo sapiens) (UniProt P09619); experiment: Inhibition of PDGFRB (unknown origin) assessed as remaining activity at 10 uM by high-throughput assay relative to control
[25] = molecular target: Phosphatidylinositol 4-phosphate 3-kinase C2 domain-containing subunit beta (Homo sapiens) (UniProt O00750); experiment: Inhibition of PIK3C2B (unknown origin) assessed as remaining activity at 10 uM by high-throughput assay relative to control
[26] = molecular target: Serine/threonine-protein kinase pim-3 (Homo sapiens) (UniProt Q86V86); experiment: Inhibition of PIM3 (unknown origin) assessed as remaining activity at 10 uM by high-throughput assay relative to control
[27] = molecular target: Serine/threonine-protein kinase PLK4 (Homo sapiens) (UniProt O00444); experiment: Inhibition of PLK4 (unknown origin) assessed as remaining activity at 10 uM by high-throughput assay relative to control
[28] = molecular target: Protein kinase C epsilon type (Homo sapiens) (UniProt Q02156); experiment: Inhibition of PRKCE (unknown origin) assessed as remaining activity at 10 uM by high-throughput assay relative to control
[29] = molecular target: RAF proto-oncogene serine/threonine-protein kinase (Homo sapiens) (UniProt P04049); experiment: Inhibition of RAF1 (unknown origin) assessed as remaining activity at 10 uM by high-throughput assay relative to control
[30] = molecular target: Ribosomal protein S6 kinase alpha-3 (Homo sapiens) (UniProt P51812); experiment: Inhibition of RSK2 Kin.Dom1.1-N-terminal (unknown origin) assessed as remaining activity at 10 uM by high-throughput assay relative to control
[31] = molecular target: NUAK family SNF1-like kinase 2 (Homo sapiens) (UniProt Q9H093); experiment: Inhibition of SNARK (unknown origin) assessed as remaining activity at 10 uM by high-throughput assay relative to control
[32] = molecular target: Angiopoietin-1 receptor (Homo sapiens) (UniProt Q02763); experiment: Inhibition of TIE2 (unknown origin) assessed as remaining activity at 10 uM by high-throughput assay relative to control

Chain of Serine/threonine-protein kinase PLK3 (Q9H4B4 whole entry): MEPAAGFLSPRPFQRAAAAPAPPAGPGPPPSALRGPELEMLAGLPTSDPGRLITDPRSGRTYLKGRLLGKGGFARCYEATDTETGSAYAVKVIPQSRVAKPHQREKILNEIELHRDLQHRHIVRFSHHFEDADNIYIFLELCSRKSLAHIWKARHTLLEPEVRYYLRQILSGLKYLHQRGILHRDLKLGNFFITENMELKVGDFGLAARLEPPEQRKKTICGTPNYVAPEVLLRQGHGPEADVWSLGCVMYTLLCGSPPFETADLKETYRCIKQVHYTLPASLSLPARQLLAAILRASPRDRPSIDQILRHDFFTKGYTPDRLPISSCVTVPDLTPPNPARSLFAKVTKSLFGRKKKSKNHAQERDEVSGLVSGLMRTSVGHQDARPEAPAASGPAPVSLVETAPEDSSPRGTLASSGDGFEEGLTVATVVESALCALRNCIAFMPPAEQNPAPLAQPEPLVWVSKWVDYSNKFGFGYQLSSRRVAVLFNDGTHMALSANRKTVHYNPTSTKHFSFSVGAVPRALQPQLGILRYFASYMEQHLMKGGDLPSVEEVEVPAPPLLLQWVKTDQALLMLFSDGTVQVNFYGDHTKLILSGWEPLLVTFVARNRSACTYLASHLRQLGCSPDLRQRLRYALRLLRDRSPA
Chain of Inhibitor of nuclear factor kappa-B kinase subunit beta (Homo sapiens) (O14920 whole entry): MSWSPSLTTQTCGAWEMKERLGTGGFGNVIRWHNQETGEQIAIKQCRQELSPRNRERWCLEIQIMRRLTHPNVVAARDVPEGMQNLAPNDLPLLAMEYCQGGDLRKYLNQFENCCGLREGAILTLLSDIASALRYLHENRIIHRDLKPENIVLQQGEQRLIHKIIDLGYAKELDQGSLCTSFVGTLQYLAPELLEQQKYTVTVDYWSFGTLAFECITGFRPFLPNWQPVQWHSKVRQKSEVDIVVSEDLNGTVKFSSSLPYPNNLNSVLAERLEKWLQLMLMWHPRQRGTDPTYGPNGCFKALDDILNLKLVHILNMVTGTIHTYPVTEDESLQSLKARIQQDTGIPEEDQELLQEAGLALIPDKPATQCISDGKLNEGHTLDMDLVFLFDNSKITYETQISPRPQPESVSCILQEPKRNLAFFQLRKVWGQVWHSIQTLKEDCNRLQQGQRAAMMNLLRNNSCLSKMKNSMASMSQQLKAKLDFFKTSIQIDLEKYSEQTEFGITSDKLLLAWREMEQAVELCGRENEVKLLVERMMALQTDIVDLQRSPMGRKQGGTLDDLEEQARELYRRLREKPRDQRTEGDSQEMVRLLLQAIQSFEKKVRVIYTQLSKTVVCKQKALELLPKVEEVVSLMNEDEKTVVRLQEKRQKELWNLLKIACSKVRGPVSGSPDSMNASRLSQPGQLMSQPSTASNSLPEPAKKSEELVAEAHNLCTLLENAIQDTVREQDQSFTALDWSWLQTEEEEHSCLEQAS
Chain of Cyclin-dependent kinase 11B (Homo sapiens) (P21127 whole entry): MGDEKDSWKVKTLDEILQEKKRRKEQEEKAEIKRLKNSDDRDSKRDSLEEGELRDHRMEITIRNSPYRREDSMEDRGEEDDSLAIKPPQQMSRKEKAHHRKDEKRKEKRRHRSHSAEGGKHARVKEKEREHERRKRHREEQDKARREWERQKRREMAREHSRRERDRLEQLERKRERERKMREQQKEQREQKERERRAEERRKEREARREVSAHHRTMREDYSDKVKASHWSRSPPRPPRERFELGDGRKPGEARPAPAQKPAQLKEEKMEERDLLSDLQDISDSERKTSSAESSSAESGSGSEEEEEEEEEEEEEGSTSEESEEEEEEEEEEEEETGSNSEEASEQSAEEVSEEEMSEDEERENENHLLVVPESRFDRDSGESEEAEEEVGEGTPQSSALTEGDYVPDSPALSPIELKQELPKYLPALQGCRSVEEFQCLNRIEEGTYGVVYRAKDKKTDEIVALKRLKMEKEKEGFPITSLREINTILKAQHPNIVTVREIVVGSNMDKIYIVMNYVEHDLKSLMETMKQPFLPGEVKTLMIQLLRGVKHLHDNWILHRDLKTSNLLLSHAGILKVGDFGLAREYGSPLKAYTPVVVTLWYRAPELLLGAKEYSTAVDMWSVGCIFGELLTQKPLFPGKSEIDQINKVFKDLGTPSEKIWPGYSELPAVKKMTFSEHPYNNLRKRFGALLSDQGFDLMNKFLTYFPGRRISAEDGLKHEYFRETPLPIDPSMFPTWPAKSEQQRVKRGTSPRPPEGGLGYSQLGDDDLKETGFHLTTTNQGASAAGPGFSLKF
Chain of Platelet-derived growth factor receptor beta (Homo sapiens) (P09619 whole entry, the tested form may be a part): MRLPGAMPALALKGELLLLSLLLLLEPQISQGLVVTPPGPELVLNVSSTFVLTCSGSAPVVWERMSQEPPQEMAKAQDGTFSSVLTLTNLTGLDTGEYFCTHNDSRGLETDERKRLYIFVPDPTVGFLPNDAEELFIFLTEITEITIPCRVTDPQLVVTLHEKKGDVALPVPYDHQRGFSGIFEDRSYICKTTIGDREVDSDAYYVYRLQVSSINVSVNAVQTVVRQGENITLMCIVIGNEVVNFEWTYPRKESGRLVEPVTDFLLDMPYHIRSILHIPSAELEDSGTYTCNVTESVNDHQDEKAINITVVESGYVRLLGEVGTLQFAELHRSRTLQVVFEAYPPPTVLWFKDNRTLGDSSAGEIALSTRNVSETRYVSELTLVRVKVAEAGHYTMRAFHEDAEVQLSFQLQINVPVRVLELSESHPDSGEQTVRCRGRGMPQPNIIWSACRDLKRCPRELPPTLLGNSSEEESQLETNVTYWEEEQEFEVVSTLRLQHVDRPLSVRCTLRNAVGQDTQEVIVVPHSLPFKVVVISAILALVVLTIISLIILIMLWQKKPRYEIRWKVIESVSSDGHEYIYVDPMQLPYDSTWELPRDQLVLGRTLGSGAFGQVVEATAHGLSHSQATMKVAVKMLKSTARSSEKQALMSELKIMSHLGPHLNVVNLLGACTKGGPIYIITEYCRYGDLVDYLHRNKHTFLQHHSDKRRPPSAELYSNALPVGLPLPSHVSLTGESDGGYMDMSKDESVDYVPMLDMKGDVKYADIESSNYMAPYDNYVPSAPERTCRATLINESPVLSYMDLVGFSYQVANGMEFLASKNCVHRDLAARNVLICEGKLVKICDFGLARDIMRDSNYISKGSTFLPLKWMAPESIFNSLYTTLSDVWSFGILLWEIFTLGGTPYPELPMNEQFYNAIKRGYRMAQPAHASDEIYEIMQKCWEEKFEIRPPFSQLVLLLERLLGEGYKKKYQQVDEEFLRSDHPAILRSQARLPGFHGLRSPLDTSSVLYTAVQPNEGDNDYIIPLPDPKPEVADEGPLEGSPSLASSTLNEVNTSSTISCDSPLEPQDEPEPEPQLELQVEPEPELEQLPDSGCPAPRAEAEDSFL
Chain of Activin receptor type-1B (Homo sapiens) (P36896 whole entry): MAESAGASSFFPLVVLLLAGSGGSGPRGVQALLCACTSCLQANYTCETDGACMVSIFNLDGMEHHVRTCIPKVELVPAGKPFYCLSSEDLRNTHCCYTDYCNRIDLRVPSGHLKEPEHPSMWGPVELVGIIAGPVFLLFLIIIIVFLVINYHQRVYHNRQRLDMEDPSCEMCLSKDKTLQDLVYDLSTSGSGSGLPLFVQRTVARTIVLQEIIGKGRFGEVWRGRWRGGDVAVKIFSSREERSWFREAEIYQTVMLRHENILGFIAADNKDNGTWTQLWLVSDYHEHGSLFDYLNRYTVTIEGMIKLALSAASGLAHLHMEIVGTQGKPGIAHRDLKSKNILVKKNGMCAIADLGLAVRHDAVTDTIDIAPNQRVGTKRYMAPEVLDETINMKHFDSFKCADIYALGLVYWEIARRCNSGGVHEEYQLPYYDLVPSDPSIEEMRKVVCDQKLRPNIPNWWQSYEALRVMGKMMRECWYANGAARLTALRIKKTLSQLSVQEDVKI
Chain of Serine/threonine-protein kinase PLK4 (Homo sapiens) (O00444 whole entry): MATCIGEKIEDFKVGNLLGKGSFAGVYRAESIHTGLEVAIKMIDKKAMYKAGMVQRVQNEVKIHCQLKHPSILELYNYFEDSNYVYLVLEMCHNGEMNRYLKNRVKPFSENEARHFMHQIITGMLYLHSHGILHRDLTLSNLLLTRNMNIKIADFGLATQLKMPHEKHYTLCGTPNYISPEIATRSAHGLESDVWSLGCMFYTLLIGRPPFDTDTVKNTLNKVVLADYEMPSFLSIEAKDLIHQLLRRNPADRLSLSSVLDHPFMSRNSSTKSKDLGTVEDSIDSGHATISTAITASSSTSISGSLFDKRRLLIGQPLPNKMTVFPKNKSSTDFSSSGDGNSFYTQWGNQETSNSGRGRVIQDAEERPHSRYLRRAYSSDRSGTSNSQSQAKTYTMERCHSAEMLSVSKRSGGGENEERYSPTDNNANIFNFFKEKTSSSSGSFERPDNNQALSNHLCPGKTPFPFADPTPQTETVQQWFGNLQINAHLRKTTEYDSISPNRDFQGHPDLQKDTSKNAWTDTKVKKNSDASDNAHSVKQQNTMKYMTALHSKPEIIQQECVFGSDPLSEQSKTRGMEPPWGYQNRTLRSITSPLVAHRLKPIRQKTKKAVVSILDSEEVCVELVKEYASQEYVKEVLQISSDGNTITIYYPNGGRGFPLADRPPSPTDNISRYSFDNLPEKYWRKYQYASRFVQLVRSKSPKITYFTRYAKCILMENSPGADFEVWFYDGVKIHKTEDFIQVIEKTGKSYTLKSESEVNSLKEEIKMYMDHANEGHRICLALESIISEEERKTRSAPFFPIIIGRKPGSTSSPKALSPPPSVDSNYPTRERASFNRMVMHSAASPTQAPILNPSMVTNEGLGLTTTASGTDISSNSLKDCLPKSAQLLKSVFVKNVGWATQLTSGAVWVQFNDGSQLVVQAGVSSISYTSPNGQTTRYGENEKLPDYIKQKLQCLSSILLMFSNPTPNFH

## O=C1c2ccccc2-c2c1oc1ccccc1c2=O
[1]
  IC50: 8.97 µM
[2]
  Activity: 93%
[3]
  Activity: 61%
[4]
  Activity: 82%
[5]
  Activity: 48%
[6]
  Activity: 66%
[7]
  Activity: 82%
[8]
  Activity: 52%
[9]
  Activity: 90%
[10]
  Activity: 56%
[11]
  Activity: 54%
[12]
  Activity: 65%
[13]
  Activity: 73%
[14]
  Activity: 72%
[15]
  Activity: 34%
[16]
  Activity: 49%
[17]
  Activity: 65%
[18]
  Activity: 91%
[19]
  Activity: 90%
[20]
  Activity: 85%
[21]
  Activity: 95%
[22]
  Activity: 79%
[23]
  Activity: 98%
[24]
  Activity: 45%
[25]
  Activity: 99%
[26]
  Activity: 94%
[27]
  Activity: 80%
[28]
  Activity: 96%
[29]
  Activity: 92%
[30]
  Activity: 77%
[31]
  Activity: 70%
[32]
  Activity: 74%
